For data set [1] the following is noted: disulfide bond, 20-membered ring.
Data set [2] deals with T1, IL-23-stimulated phosphorylated STAT3 in peripheral blood mononuclear cells (PBMCs) (Homo sapiens, UniProt Q5VWK5).
T1 sequence (Q5VWK5 24-629): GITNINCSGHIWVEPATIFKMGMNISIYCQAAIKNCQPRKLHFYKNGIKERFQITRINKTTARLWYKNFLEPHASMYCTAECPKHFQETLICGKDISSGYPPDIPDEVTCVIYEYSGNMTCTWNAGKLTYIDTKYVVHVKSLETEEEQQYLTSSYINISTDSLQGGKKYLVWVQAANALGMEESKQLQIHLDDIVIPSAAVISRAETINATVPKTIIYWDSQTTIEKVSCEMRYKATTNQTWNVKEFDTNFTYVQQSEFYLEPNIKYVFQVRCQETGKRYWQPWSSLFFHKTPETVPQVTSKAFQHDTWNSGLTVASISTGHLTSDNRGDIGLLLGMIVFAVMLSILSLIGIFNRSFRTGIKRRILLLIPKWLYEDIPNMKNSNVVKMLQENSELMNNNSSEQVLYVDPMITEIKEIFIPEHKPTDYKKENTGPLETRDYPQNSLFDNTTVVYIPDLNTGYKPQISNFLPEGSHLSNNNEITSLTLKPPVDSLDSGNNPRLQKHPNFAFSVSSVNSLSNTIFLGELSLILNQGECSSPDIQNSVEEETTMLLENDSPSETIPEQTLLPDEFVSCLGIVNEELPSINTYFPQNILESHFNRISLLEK
The experiment in a line: PBMC pSTAT3 Assay. To be noted: PBMCs from healthy donors, IL-23 5 ng/mL, 30 minutes, read-out: PBMC pSTAT3 IC50. Type of data set: cell-based. The procedure: Cryopreserved peripheral blood mononuclear cells (PBMCs) from healthy donors were thawed and washed twice in ImmunoCult-XF T cell expansion medium (XF-TCEM) supplemented with CTL anti-aggregate wash. The cells were counted, resuspended at 2-6×10^5 cells per mL XF-TCEM supplemented with penicillin/streptomycin and 100 ng/mL IL-1β (BioLegend, 579404), and cultured in tissue culture flasks coated with anti-CD3 (eBioscience, 16-0037-85 or BD Pharmingen, 555329) at 37° C. in 5% CO2. On day 4 of culture, PBMCs were collected, washed twice in RPMI-1640 supplemented with 0.1% BSA (RPMI-BSA), and incubated in RPMI-BSA in upright tissue culture flasks for ˜4 hours at 37° C. in 5% CO2. Following this ‘starvation,’ a total of 6×10^4 cells in 30 μL RPMI-BSA was transferred into each well of a 384-well plate pre-spotted with peptide or DMSO. The cells were incubated for 30 minutes prior to the addition of IL-23 at a final concentration of 5 ng/mL. The cells were stimulated with cytokine for 30 minutes at 37° C. in 5% CO2, transferred onto ice for 10 minutes, and lysed. Cell lysates were stored at −80° C. until phosphorylated STAT3 was measured using the phospho-STAT panel kit (Meso Scale Discovery, K15202D).

In another data set the target is T2, IL-23R (Homo sapiens, UniProt Q5VWK5).
T2 construct: host or cells: HEK293
T2 sequence (Q5VWK5 24-629): T1 sequence (Q5VWK5 24-629)
The experiment in a line: IL23R Reporter Assay. Type of data set: cell-based. As to conditions: HEK293 cells containing IL-23R, IL-12Rβ1 and STAT-inducible luciferase reporter; 10 ng/mL IL-23; 5 h; read-out: IC50. As for the experimental part:
Compounds were serially diluted in 100% (v/v) DMSO) and plated using an Echo acoustic dispenser (Labcyte) into 1536-well non-treated black assay plates (Corning #9146). […] After 5 h at 37° C., 5% CO2, 95% relative humidity, cells were placed at 20° C. and treated with BioGlo reagent (Promega) according to the Manufacturer's instructions. Luminescence was measured on a Pherastar FSX (BMG LabTech).
In general terms: A reporter such as luciferase makes a cellular process visible.

In general, IC50 refers to the midpoint of a concentration-inhibition curve.

Read-outs that look alike come from different tables or passages of the source. Positions of bridges follow the written chain, without caps; N, C: chain ends. Non-standard residues stand in square brackets, D forms with d. Residues, ends and D or L forms follow the SMILES beside them. *: point of attachment. Trp(7-(3-AcNH-Ph)) = CC(=O)Nc1cccc(-c2cccc3c(C[C@H](N)C(=O)O)c[nH]c23)c1; Me3N+(CH2)2O(CH2)2O(CH2)2CO = C[N+](C)(C)CCOCCOCCC(=O)*; 2Nal(6-OH) = N[C@@H](Cc1ccc2cc(O)ccc2c1)C(=O)O; Trp(7-Me) = Cc1cccc2c(C[C@H](N)C(=O)O)c[nH]c12; 3Pal(5-Me) = Cc1cncc(C[C@H](N)C(=O)O)c1; AEF = NCCOc1ccc(C[C@H](N)C(=O)O)cc1; 3Pal = N[C@@H](Cc1cccnc1)C(=O)O; Ethyl(2-guanidino) = N=C(N)NCC*; Lys(Me) = CNCCCC[C@H](N)C(=O)O; Pen = CC(C)(S)[C@H](N)C(=O)O; Thp = NC1(C(=O)O)CCOCC1; Sar = CNCC(=O)O

`Cc1cccc2c(C[C@@H]3NC(=O)[C@H]([C@@H](C)O)NC(=O)[C@H](CC(N)=O)NC(=O)[C@@H](NC(=O)CCOCCOCC[N+](C)(C)C)C(C)(C)SSC(C)(C)[C@@H](C(=O)N[C@@H](Cc4ccc(OCCN)cc4)C(=O)N[C@@H](Cc4ccc5cc(O)ccc5c4)C(=O)NC4(C(=O)N[C@@H](CCCCN(C)C(=O)CCOCCOCC[N+](C)(C)C)C(=O)N[C@@H](CC(N)=O)C(=O)N[C@@H](Cc5cccnc5)C(=O)N(C)CC(N)=O)CCOCC4)NC(=O)[C@H](CCCCN(C)C(=O)CCOCCOCC[N+](C)(C)C)NC3=O)c[nH]c12` had a ring closure, yield after HPLC in data set [1] (from cPEG3aCO-Pen-Asn-Thr-7MeTrp-Lys(NMecPEG3a)-Pen-AEF-6OH2Nal-THP-Lys(NMecPEG3a)-Asn-3Pya-Sar-NH2, I2/MeOH, 20% MeCN/H2O, 0.6 mM) of 11.7%.
In data set [1] (from Ac-dArg-Pen-Asn-Thr-7MeTrp-Lys(Ac)-Pen-AEF-6OH2Nal-THP-Glu-Asn-3Pya-Sar-Lys(PEG2PEG2gEC18OH)-NH2, I2/MeOH, 20% MeCN/H2O, 0.857 mM), `CC(=O)NCCCC[C@@H]1NC(=O)[C@H](Cc2c[nH]c3c(C)cccc23)NC(=O)[C@H]([C@@H](C)O)NC(=O)[C@H](CC(N)=O)NC(=O)[C@@H](NC(=O)[C@@H](CCCNC(=N)N)NC(C)=O)C(C)(C)SSC(C)(C)[C@@H](C(=O)N[C@@H](Cc2ccc(OCCN)cc2)C(=O)N[C@@H](Cc2ccc3cc(O)ccc3c2)C(=O)NC2(C(=O)N[C@@H](CCC(=O)O)C(=O)N[C@@H](CC(N)=O)C(=O)N[C@@H](Cc3cccnc3)C(=O)N(C)CC(=O)N[C@@H](CCCCNC(=O)COCCOCCNC(=O)COCCOCCNC(=O)CC[C@H](NC(=O)CCCCCCCCCCCCCCCCC(=O)O)C(=O)O)C(N)=O)CCOCC2)NC1=O` registered a ring closure, yield after HPLC of 12.1%.
Consider “MeCO-k(d)-Pen(3)-N-T-7MeW-K(Ac)-Pen(3)-AEF-6OH2Nal-THP-E-N-3Pya-Sar-CONH2”, for which the ring closure, yield after HPLC in data set [1] (I2/AcOH, MeCN/H2O, 2.19 mM) was 31%.
Turning to “MeCO-Pen(3)-N(N(Me)2)-T-7MeW-Dab(NMecarn)-Pen(3)-AEF-6OH2Nal-THP-Dab(NMecarn)-N-3Pya-Sar-CON(Me)2”, the ring closure, yield after HPLC in data set [1] (I2/AcOH, MeCN/H2O, 2.09 mM) stood at 23%.
In data set [1] (I2/MeOH, 20% MeCN/H2O, 0.85 mM), “MeCO-Pen(3)-E(2)-T-7MeW-K(Ac)-Pen(3)-AEF(2)-6OH2Nal-THP-K(Ac)-N-3Pya-Sar-CONH2” showed a ring closure, yield after HPLC of 8.28%.
As for `CC(=O)NCCCC[C@@H]1NC(=O)[C@H](Cc2c[nH]c3c(-c4cccc(NC(C)=O)c4)cccc23)NC(=O)[C@H]([C@@H](C)O)NC(=O)[C@H](CC(N)=O)NC(=O)[C@@H](NC(=O)[C@@H](CCCNC(=N)N)NC(C)=O)C(C)(C)SSC(C)(C)[C@@H](C(=O)N[C@@H](Cc2ccc(OCCNC(=N)N)cc2)C(=O)N[C@@H](Cc2ccc3cc(O)ccc3c2)C(=O)NC2(C(=O)N[C@@H](CCC(=O)O)C(=O)N[C@@H](CC(N)=O)C(=O)N[C@@H](Cc3cncc(C)c3)C(=O)N(C)CC(N)=O)CCOCC2)NC1=O` [compound 15, MeCO-r-Pen(3)-N-T-7(3NAcPh)W-K(Ac)-Pen(3)-AEF(G)-6OH2Nal-THP-E-N-5MePyridinAla-Sar-CONH2] (Ac-[dR][Pen]NT[Trp(7-(3-AcNH-Ph))]K(Ac)[Pen]Y(Ethyl(2-guanidino))[2Nal(6-OH)][Thp]EN[3Pal(5-Me)][Sar]-NH2; disulfide 2-7), the IC50 in data set [2] was below 0.01 nM; at IL-23R, below 10 nM.
With `CC(=O)NCCCC[C@@H]1NC(=O)[C@H](Cc2c[nH]c3c(C)cccc23)NC(=O)[C@H]([C@@H](C)O)NC(=O)[C@H](CC(N)=O)NC(=O)[C@@H](NC(C)=O)C(C)(C)SSC(C)(C)[C@@H](C(=O)N[C@@H](Cc2ccc(OCCN)cc2)C(=O)N[C@@H](Cc2ccc3cc(O)ccc3c2)C(=O)NC2(C(=O)N[C@@H](CCC(=O)O)C(=O)N[C@@H](CC(N)=O)C(=O)N[C@@H](Cc3cccnc3)C(=O)N(C)CC(=O)N[C@@H](CCCCNC(=O)COCCOCCNC(=O)COCCOCCNC(=O)CC[C@H](NC(=O)CCCCCCCCCCCCCCCCC(=O)O)C(=O)O)C(N)=O)CCOCC2)NC1=O`, in data set [1] (from Ac-Pen-Asn-Thr-7MeTrp-Lys(Ac)-Pen-AEF-6OH2Nal-THP-Glu-Asn-3Pya-Sar-Lys(PEG2PEG2gEC18OH)-NH2, I2/MeOH, 20% MeCN/H2O, 0.82 mM), the ring closure, yield after HPLC turned out to be 12.9%.
`CC(=O)NCCCC[C@@H]1NC(=O)[C@H](Cc2c[nH]c3c(C)cccc23)NC(=O)[C@H]([C@@H](C)O)NC(=O)[C@@H]2CCC(=O)NCCOc3ccc(cc3)C[C@@H](C(=O)N[C@@H](Cc3ccc4cc(O)ccc4c3)C(=O)NC3(C(=O)N[C@@H](CCCCNC(C)=O)C(=O)N[C@@H](CC(N)=O)C(=O)N[C@@H](Cc4cccnc4)C(=O)N(C)CC(N)=O)CCOCC3)NC(=O)[C@@H](NC1=O)C(C)(C)SSC(C)(C)[C@H](NC(C)=O)C(=O)N2` [SEQ ID NO: 414, MeCO-Pen(3)-E(2)-T-7MeW-K(Ac)-Pen(3)-AEF(2)-6OH2Nal-THP-K(Ac)-N-3Pya-Sar-CONH2] (Ac-[Pen]ET[Trp(7-Me)]K(Ac)[Pen][AEF][2Nal(6-OH)][Thp]K(Ac)N[3Pal][Sar]-NH2; disulfide 1-6; lactam 2-7): the values for the IC50 (in data set [2]; at IL-23R) were below 0.01 nM and below 10 nM, respectively.
Consider `CC(=O)NCCCC[C@@H]1NC(=O)[C@H](Cc2c[nH]c3c(C)cccc23)NC(=O)[C@H]([C@@H](C)O)NC(=O)[C@H](CC(N)=O)NC(=O)[C@@H](NC(=O)[C@@H](CCCNC(=N)N)NC(C)=O)C(C)(C)SSC(C)(C)[C@@H](C(=O)N[C@@H](Cc2ccc(OCCN)cc2)C(=O)N[C@@H](Cc2ccc3cc(Br)ccc3c2)C(=O)NC2(C(=O)N[C@@H](CCC(=O)O)C(=O)N[C@@H](CC(N)=O)C(=O)NC3(C(N)=O)CCOCC3)CCOCC2)NC1=O`, for which the ring closure, yield after HPLC in data set [1] (from Ac-dArg-Pen-Asn-Thr-7MeTrp-Lys(Ac)-Pen-AEF-6Br2Nal-THP-Glu-Asn-THP-NH2, I2/MeOH, 20% MeCN/H2O, 0.977 mM) turned out to be 34.1%.
In the case of `CC(=O)NCCCC[C@@H]1NC(=O)[C@H](Cc2c[nH]c3c(-c4cccc(NC(C)=O)c4)cccc23)NC(=O)[C@H]([C@@H](C)O)NC(=O)[C@H](CC(N)=O)NC(=O)[C@@H](NC(=O)CCOCCOCC[N+](C)(C)C)C(C)(C)SSC(C)(C)[C@@H](C(=O)N[C@@H](Cc2ccc(OCCNC(=N)N)cc2)C(=O)N[C@@H](Cc2ccc3cc(O)ccc3c2)C(=O)NC2(C(=O)N[C@@H](CCCCN(C)C(C)=O)C(=O)N[C@@H](CC(N)=O)C(=O)N[C@@H](Cc3cccnc3)C(=O)N(C)CC(N)=O)CCOCC2)NC1=O` [compound 34, cPEG3aCO-Pen(3)-N-T-7(3NAcPh)W-K(Ac)-Pen(3)-AEF(G)-6OH2Nal-THP-K(NMeAc)-N-3Pya-Sar-CONH2] ({Me3N+(CH2)2O(CH2)2O(CH2)2CO}-[Pen]NT[Trp(7-(3-AcNH-Ph))]K(Ac)[Pen]Y(Ethyl(2-guanidino))[2Nal(6-OH)][Thp][Lys(Me)](Ac)N[3Pal][Sar]-NH2; disulfide 1-6), the IC50 in data set [2] was 0.01 to 0.1 nM; at IL-23R it was below 10 nM.
On the same counts, the results for `CC(=O)N(C)CCCC[C@@H]1NC(=O)[C@H](Cc2c[nH]c3c(C)cccc23)NC(=O)[C@H]([C@@H](C)O)NC(=O)[C@H](CC(N)=O)NC(=O)[C@@H](NC(=O)CCOCCOCC[N+](C)(C)C)C(C)(C)SSC(C)(C)[C@@H](C(=O)N[C@@H](Cc2ccc(OCCN)cc2)C(=O)N[C@@H](Cc2ccc3cc(O)ccc3c2)C(=O)NC2(C(=O)N[C@@H](CCC(=O)N(C)C)C(=O)N[C@@H](CC(N)=O)C(=O)N[C@@H](Cc3cccnc3)C(=O)N(C)CC(N)=O)CCOCC2)NC1=O` [compound 392, cPEG3aCO-Pen(3)-N-T-7MeW-K(NMeAc)-Pen(3)-AEF-6OH2Nal-THP-Q(N(Me)2)-N-3Pya-Sar-CONH2] ({Me3N+(CH2)2O(CH2)2O(CH2)2CO}-[Pen]NT[Trp(7-Me)][Lys(Me)](Ac)[Pen][AEF][2Nal(6-OH)][Thp]E(NMe2)N[3Pal][Sar]-NH2; disulfide 1-6) are below 0.01 nM and below 10 nM.

Values taken from patent US20240279281A1, “Peptide Inhibitors of Interleukin-23 Receptor” (Janssen Pharmaceutica NV, priority 2023, published 2024).
